Columns and labels:
[1] = tested on: HT-29 cells; assay: Cytotoxicity by MTT assay, 4 h incubation; format: cell-based, Human; conditions: 0.03-1 μM
Description: (§1) The cytotoxicity of chitosan-based nanoparticles was measured by MTT assay. Caco-2, HT-29, and Raji-B cells at the logarithmic growth stage were inoculated on 96-well plates at 5 × 10^3 cells per well, respectively. The cells were cultured at 37 °C, 5% CO2 for 48 h, then the culture medium was removed and 150 μL of drug-containing culture medium was added to the final concentrations of 1, 0.5, 0.25, 0.125, 0.06, and 0.03 μM. After incubation for 4 h, 20 μL of MTT solution (5 mg/mL) was added to each well, which was incubated for an additional 4 h. Then, the culture medium was discarded and replaced with 150 μL dimethyl sulfoxide. The plates were placed on the shaker and oscillated for 10 min.
(§2) The absorbance was measured at 570 nm using an enzyme marker (ST360, KHB, Shanghai, China). Cell viability was calculated as a percentage of the absorbance relative to that of the control.

[2] = tested on: Caco-2 cells; assay: Cytotoxicity by MTT assay, 4 h incubation; format: cell-based, Human; conditions: 0.03-1 μM
Description: as §1, §2

[3] = tested on: Raji-B cells; assay: Cytotoxicity by MTT assay, 4 h incubation; format: cell-based, Human; conditions: 0.03-1 μM
Description: as §1, §2

[4] = tested on: type 2 diabetic rats; assay: In vivo pharmacodynamics study: blood glucose in type 2 diabetic rats; set-up: species or system Sprague-Dawley (SD) rats; conditions: T2DM rats, subcutaneous 65 μg/kg
Description: SD rats were fed high-fat diets containing 45% fat to induce insulin resistance. After one-month diets, a standard 16 h fast in SD rats was conducted, and a 30 mg/mL STZ solution prepared with 0.1 mol/L citrate-sodium citrate buffer (pH 4.5) was injected intraperitoneally at a dose of 30 mg/kg (avoid light, the injection was completed within 30 min). Then the rats were given sufficient water and fasted. Restored the diet after 2 h. If the fasting blood glucose was higher than 16.67 mmol/L for two consecutive times, and the rats were accompanied by significant polydipsia, polyphagia, polyuria, and weight loss, it is considered to be successfully modeled and subsequent experiments could be carried out. To evaluate therapeutic effects, thirty T2DM rats were randomly divided into five groups, fasted overnight, and labeled respectively. […] Blood samples were collected from the tail tip at 0, 0.5, 1, 2, 3, 4, 6, and 10 h after administration to observe the changes in blood glucose levels, and the blood glucose-time curve was plotted.

Row | Molecule | cytotoxicity to HT-29 cells [1] | cytotoxicity to Caco-2 cells [2] | cytotoxicity to Raji B cells [3] | time of minimum blood glucose concentration [4] [h] | change of blood glucose concentration ([4]; 0-10 h)
1 | CCN(CC)c1ccc2c(-c3ccccc3C(=O)O)c3ccc(=[N+](CC)CC)cc-3oc2c1 [Rhodamine B] | no cytotoxicity | no cytotoxicity | no cytotoxicity |  | 
2 | Insulin |  |  |  | 3 | decreased significantly within 3 h

— PMC9183037 (Polymers, 2022)
